Results: ChEMBL document CHEMBL5725691, “Bromodomain inhibitors” (2018)

Biological target: Bromodomain-containing protein 4 (Homo sapiens, UniProt O60885)
Assay: His-tagged BRD4 was cloned, expressed and purified to homogeneity. […] BRD4 binding and inhibition was assessed by monitoring the interaction of biotinylated H4-tetraacetyl peptide (AnaSpec, H4K5/8/12/16(Ac), biotin-labeled) with the target using the AlphaScreen technology (Life Technologies). […] After 20 min incubation at room temp, Alpha streptavidin donor beads and Nickel Chelate acceptor beads were added to a final concentration of 5 μg/mL.

IC50, < 500 nM:
CCS(=O)(=O)c1ccc(OCC2CC2)c(-c2cn(C)c(=O)c3c2OCC(=O)N3)c1
CCS(=O)(=O)Nc1ncc(Oc2ccc(F)cc2F)c(-c2cc(OC)c(=O)n(C)c2)n1
CCS(=O)(=O)c1ccc(NCC2CC2)c(-c2cc(Cl)c(=O)n(C)c2)c1
Cn1cc(-c2cc(S(C)(=O)=O)ccc2OCC2CC2)c2cc(C(F)(F)F)ccc2c1=O
Cc1cc(-c2cn(CS(C)(=O)=O)c(=O)cc2Oc2ccc(F)cc2F)cn(CC2CC2)c1=O
Cc1c(-c2cc(NS(C)(=O)=O)ccc2Oc2ccc(F)cc2F)cn(C)c(=O)c1C
CCCOc1ccc(S(C)(=O)=O)cc1-c1cn(C)c(=O)c2cnc(-c3cnn(C)c3)nc12
Cc1cc(-c2cc(OCc3ccccc3Cl)cc(S(C)(=O)=O)c2)cn(C)c1=O
